The values below come from patent publication US10947252B2, “Inhibitors of KEAP1-Nrf2 protein-protein interaction” (Janssen Pharmaceutica NV, priority 2018, dated 2021).

In experiment [1] the target is Kelch domain of human KEAP1 (321-624 aa) (Homo sapiens (Human), UniProt Q14145). The experiment is described as follows: KEAP1 KELCH ThermoFluor binding assay.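 Also: Ligand-induced melting temperature shift of E. coli-expressed KEAP1 Kelch protein, Kd estimated from concentration-response curves of ΔTm.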 Particulars: KEAP Kelch […], 1,8-ANS, pH 7.0, average of results obtained, read-out: Tf Kd.
Experiment [2] has as its system Glo-Response ARE-luc2P HEK293 cell line. The experiment is described as follows: ARE luciferase reporter cell-based assay.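 Also: luciferase signal tracks Nrf2 activation of the ARE once compounds disrupt KEAP1-Nrf2 binding, read with One-Glo reagent, DMSO serving as low control.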 Particulars: Homo sapiens, HEK293, 24 h, average of results obtained.
Experimental: The ARE assay utilizes a luciferase reporter cell line where the signal is proportional to NrF2 activation of the ARE. The cell line is commercially available from Promega and was prepared by stably transfecting HEK293 cells with a vector (pGL4.11) which contains the ARE response element upstream of a minimal promoter. The promoter drives expression of luc2 firefly luciferase gene. Upon disruption of KEAP1-Nrf2 binding by compound, Nrf2 translocates into the nucleus where it binds to the ARE and activates transcription of luciferase.
The materials used in this ARE assay are as follows: Glo-Response ARE-luc2P HEK293 cell line and One-Glo Luciferase Assay System were purchased from Promega (Madison, Wis.). Dulbecco's Modified Eagle medium ((DMEM), low glucose, GlutaMAX, pyruvate), fetal bovine serum (certified, heat inactivated), hygromycin B, Dulbecco's phosphate-buffered saline were purchased from Life Technologies (Grand Island, N.Y.). Penicillin, streptomycin solution (100×) and 0.05% trypsin-EDTA were purchased from Corning (Manassas, Va.). DMSO was purchased from EMD Millipore.
The ARE assay protocol is as follows: cells were maintained in growth medium (DMEM+10% FBS, 200 μg/mL hygromycin B, p-s) between 20-90% confluency by splitting twice per week. One day before the assay, cells were trypsinized, counted to determine viable cell count, and re-suspended in assay medium (DMEM+10% FBS, p-s) at 250,000 cells/mL. […] 100% DMSO was used as the low control. A 11-point dose series of the control compound was included on every plate. Compounds were spotted to an intermediate plate (Greiner #781280 V-bottom 384 well plate) using the Echo acoustic dispenser (Labscyte San Jose, Calif.). Spot size was 240 nL.
On the day of the assay, 60 mL per well of assay medium was added to the pre-spotted plate to make 2× compound stocks using the Combi (Thermo Waltham, Mass.). Compound and medium were mixed on the Janus and 20 mL of 2×compound stock was added to the cell plate which already contained 20 mL of assay medium from cell plating. […] The plates were returned to the tissue culture incubator for 24 hours.
The next day, luciferase activity was measured according to the manufacturer's protocol for One-Glo luciferase reagent. The plates were removed from the incubator and allowed to equilibrate to room temperature for 30 min. Forty microliters of One-Glo reagent (equilibrated to room temperature) was added per well using the Combi. The plates were mixed on an orbital shaker for 3 min. Luminescence was read on the BMG Pherastar multiplate reader (Cary, N.C.) using the luminescence protocol (1 sec interval).
The dose-response data were analyzed in Genedata Screener using 4PL nonlinear regression model. Raw luminescence counts as well as normalized values were used for data analysis.

Sequence of Kelch domain of human KEAP1 (321-624 aa) (Q14145 321-624): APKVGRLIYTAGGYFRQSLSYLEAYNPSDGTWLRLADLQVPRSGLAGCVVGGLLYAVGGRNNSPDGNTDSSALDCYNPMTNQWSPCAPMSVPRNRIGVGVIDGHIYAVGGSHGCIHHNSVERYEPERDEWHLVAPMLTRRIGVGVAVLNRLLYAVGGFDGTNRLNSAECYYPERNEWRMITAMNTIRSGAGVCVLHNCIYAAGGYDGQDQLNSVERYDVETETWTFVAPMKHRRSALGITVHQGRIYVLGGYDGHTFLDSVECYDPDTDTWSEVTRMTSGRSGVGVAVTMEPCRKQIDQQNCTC

As to `Cc1ccc([C@@H](CC(=O)O)c2ccc3c(nnn3CC3CC3)c2C)cc1CN1CC2(COC2)Oc2ccccc2S1(=O)=O` (single isomer, unassigned) [Example 76, (*R)-3-(1-(cyclopropylmethyl)-4-methyl-1H-benzo[d][1,2,3]triazol-5-yl)-3-(3-((1′,1′-dioxidospiro[benzo[b][1,4,5]oxathiazepin-4,3′-oxetan]-2,(3H)-yl)methyl)-4-methylphenyl)propanoic Acid], the Kd in experiment [1] came to 4.8 nM. The molecule also registered an EC50 in experiment [2] of 136 nM.

Turning to `Cc1cnc2c(c1)S(=O)(=O)N(Cc1cc(C(CC(=O)O)c3ccn4c(C(F)(F)F)nnc4c3C)ccc1Cl)CC1CCCCN21` (stereo not drawn) [Example 89, 3-(4-Chloro-3-(((*S)-3-methyl-5,5-dioxido-7,7a,8,9,10,11-hexahydro-6H-dipyrido[2,1-d:2′,3′-f][1,2,5]thiadiazepin-6-yl)methyl)phenyl)-3-(8-methyl-3-(trifluoromethyl)-[1,2,4]triazolo[4,3-a]pyridine-7-yl)propanoic Acid], in experiment [1], the Kd was determined as 0.0054 nM. In experiment [2], this molecule yielded an EC50 of 6.9 nM.

As for `Cc1ccc([C@@H](c2ccn3c(C(F)(F)F)nnc3c2C)C(C)(C)C(=O)O)cc1CN1CC2(CC2)Oc2nc(OCCN3CCCC3)c(C)cc2S1(=O)=O` (single isomer, unassigned) [Example 373, (*S)-2,2-Dimethyl-3-(4-methyl-3-((8′-methyl-1′,1′-dioxido-7′-(2-(pyrrolidin-1-yl)ethoxy)spiro[cyclopropane-1,4′-pyrido[2,3-b][1,4,5]oxathiazepin]-2′(3′H)-yl)methyl)phenyl)-3-(8-methyl-3-(trifluoromethyl)-[1,2,4]triazolo[4,3-a]pyridine-7-yl)propanoic Acid], the Kd in experiment [1] is less than 1 nM. In addition, in experiment [2], a half-maximal effect (EC50) was put at 5.4 nM.

In the case of `Cc1cnc2c(c1)S(=O)(=O)N(Cc1cc([C@H](c3ccn4c(C(F)(F)F)nnc4c3C)C(C)(C)C(=O)O)ncc1C)CC1(CC1)O2` (single isomer, unassigned) [Example 589, (*R)-2,2-Dimethyl-3-(8-methyl-3-(trifluoromethyl)-[1,2,4]triazolo[4,3-a]pyridin-7-yl)-3-(5-methyl-4-((8′-methyl-1′,1′-dioxidospiro[cyclopropane-1,4′-pyrido[2,3-b][1,4,5]oxathiazepin]-2′(3′H)-yl)methyl)pyridin-2-yl)propanoic Acid], in experiment [1], the Kd came out at 1450 nM. Moreover, in experiment [2], the response was half-maximal at 1970 nM (EC50).

For the molecule `Cc1ccc([C@H](c2ccc3c(nnn3C3CC3)c2C)C(C)(C)C(=O)O)cc1CN1CC2(CCNCC2)Oc2ncccc2S1(=O)=O` (single isomer, unassigned) [Example 647, (*R)-3-(1-Cyclopropyl-4-methyl-1H-benzo[d][1,2,3]triazol-5-yl)-3-(3-((1′,1′-dioxidospiro[piperidine-4,4′-pyrido[2,3-b][1,4,5]oxathiazepin]-2′(3′H)-yl)methyl)-4-methylphenyl)-2,2-dimethylpropanoic Acid], the Kd in experiment [1] was less than 1 nM. This molecule also had an EC50 in experiment [2] of 11.6 nM.

Take `Cc1cnc2c(c1)S(=O)(=O)N(Cc1cc([C@@H](c3ccn4c(C(F)F)nnc4c3C)C(C)(C)C(=O)O)ccc1C)CC1(COC1)O2` (single isomer, unassigned) [Example 617, (*S)-3-(3-(Difluoromethyl)-8-methyl-[1,2,4]triazolo[4,3-a]pyridin-7-yl)-2,2-dimethyl-3-(4-methyl-3-((8′-methyl-1′,1′-dioxidospiro[oxetane-3,4′-pyrido[2,3-b][1,4,5]oxathiazepin]-2′(3′H)-yl)methyl)phenyl)propanoic Acid]: the Kd in experiment [1] was less than 1 nM. In experiment [2], the EC50 is 1.15 nM.

For `Cc1ccc(C(CC(=O)O)c2ccn3c(C(F)F)nnc3c2C)cc1CN1CC2(CC2)Oc2ncc(F)cc2S1(=O)=O` (stereo not drawn) [Example 526, 3-(3-(Difluoromethyl)-8-methyl-[1,2,4]triazolo[4,3-a]pyridin-7-yl)-3-(3-((8′-fluoro-1′,1′-dioxidospiro[cyclopropane-1,4′-pyrido[2,3-b][1,4,5]oxathiazepin]-2′(3′H)-yl)methyl)-4-methylphenyl)propanoic Acid], the Kd in experiment [1] was less than 1 nM. For the same molecule, a half-maximal response in experiment [2] (EC50) required 60.1 nM.

`Cc1ccc([C@H](CC(=O)O)c2ccn3c(C(F)F)nnc3c2C)cc1CN1C[C@H]2CCCN2c2ncccc2S1(=O)=O` (single isomer, unassigned) [Example 450, (*S)-3-(3-(Difluoromethyl)-8-methyl-[1,2,4]triazolo[4,3-a]pyridin-7-yl)-3-(3-(((R)-5,5-dioxido-7a,8,9,10-tetrahydropyrido[2,3-f]pyrrolo[2,1-d][1,2,5]thiadiazepin-6(7H)-yl)methyl)-4-methylphenyl)propanoic Acid]: in experiment [1], the Kd is less than 1 nM. In experiment [2], this molecule had an EC50 of 25.1 nM.

As for `Cc1c([C@@H](CC(=O)O)c2ccc(Cl)c(CN3CC4(COC4)Oc4ncccc4S3(=O)=O)c2)ccn2c(C(F)(F)F)nnc12` (single isomer, unassigned) [Example 88, (*S)-3-(4-Chloro-3-((1′,1′-dioxoidospiro[oxetane-3,4′-pyrido[2,3-b][1,4,5]oxathiazepin]-2′(3′H)-yl)methyl)phenyl)-3-(8-methyl-3-(trifluoromethyl)-[1,2,4]triazolo[4,3-a]pyridine-7-yl)propanoic Acid], the Kd in experiment [1] is 0.01 nM. The molecule also had an EC50 in experiment [2] of more than 20000 nM.

Turning to `Cc1cnc2c(c1)S(=O)(=O)N(Cc1nc([C@H](c3ccn4c(C(F)F)nnc4c3C)C(C)(C)C(=O)O)ccc1C)CC1(CNC1)O2` (single isomer, unassigned) [Example 631, (*R)-3-(3-(Difluoromethyl)-8-methyl-[1,2,4]triazolo[4,3-a]pyridin-7-yl)-2,2-dimethyl-3-(5-methyl-6-((8′-methyl-1′,1′-dioxidospiro[azetidine-3,4′-pyrido[2,3-b][1,4,5]oxathiazepin]-2′(3′H)-yl)methyl)pyridin-2-yl)propanoic Acid], the Kd in experiment [1] stood at 1.08 nM. This molecule also returned an EC50 in experiment [2] of 76.8 nM.

Take `Cc1ccc([C@H](c2ccn3c(C(F)(F)F)nnc3c2C)C(C)(C)C(=O)O)cc1CN1CC2(CCOCC2)Oc2nc(OCCN3CCCC3)c(C)cc2S1(=O)=O` (single isomer, unassigned) [Example 609, (*R)-2,2-Dimethyl-3-(4-methyl-3-((8′-methyl-1′,1′-dioxido-7′-(2-(pyrrolidin-1-yl)ethoxy)-2,3,5,6-tetrahydrospiro[pyran-4,4′-pyrido[2,3-b][1,4,5]oxathiazepin]-2′(3′H)-yl)methyl)phenyl)-3-(8-methyl-3-(trifluoromethyl)-[1,2,4]triazolo[4,3-a]pyridin-7-yl)propanoic Acid]: the dissociation constant Kd in experiment [1] is 634 nM. In experiment [2], this molecule gave an EC50 of more than 20000 nM.

Regarding `Cc1ccc([C@H](c2ccn3c(C(F)(F)F)nnc3c2C)C(C)(C)C(=O)O)cc1CN1CC2(CCOCC2)Oc2nc(NC3CC(O)C3)c(C)cc2S1(=O)=O` (single isomer, unassigned) [Example 361, (*R)-3-(3-((7′-(((1R,3R)-3-Hydroxycyclobutyl)amino)-8′-methyl-1′,1′-dioxido-2,3,5,6-tetrahydrospiro[pyran-4,4′-pyrido[2,3-b][1,4,5]oxathiazepin]-2′(3′H)-yl)methyl)-4-methylphenyl)-2,2-dimethyl-3-(8-methyl-3-(trifluoromethyl)-[1,2,4]triazolo[4,3-a]pyridine-7-yl)propanoic Acid], the Kd in experiment [1] is less than 1 nM. This molecule returned an EC50 in experiment [2] of 60.4 nM.
